Assay results from patent publication US20120016010A1, “RNA Interference Mediated Inhibition of BTB and CNC Homology 1, Basic Leucine Zipper Transcription Factor 1 (BACH1) Gene Expression Using Short Interfering Nucleic Acid (siNA)” (Merck Sharp & Dohme Corp, priority 2009, published 2012).

Experiments:
[1] = system: Bach1 mRNA; assay: Initial screen: Bach1 mRNA knock-down in mouse NIH 3T3 cells (96-well transfection, quantitative RT-PCR); type: cell-based; conditions: mouse NIH3T3 cells, n = 2, 24 hrs post-transfection, protocol 10 nM siNA
[2] = system: Bach1 mRNA; assay: Bach1 mRNA knockdown and potency in human bronchial epithelial cells (NHBE); type: cell-based; conditions: 48 hours post transfection, mean of 3 donors; for EC50: Bach1 mRNA knockdown; for Maximum mRNA knockdown: Bach1 mRNA
Procedure: The siNAs with Duplex ID numbers corresponding to 29961-DC, 29964-DC, 29984-DC, 29988-DC, 29957-DC, 29947-DC, and 29956-DC were tested for maximum Bach1 mRNA knockdown and for potency in human bronchial epithelial cells as follows.
Human Bronchial Epithelial cells (NHBE cells) obtained from Lonza (Cat. No. CC-2540) were grown at 37deg in the presence of 5% CO2 and cultured in BEBM basal medium (Lonza, Cat. No. CC-3171) on Biocoat Collagen1 coated flasks (Becton Dickinson).
NHBE cells were plated in collagen 1 coated plates and cultured in appropriate culture media. The cells were cultured for 24 hours after plating at 37 degrees in the presence of 5% CO2. siNAs were diluted in OptiMEM 1 to 1 uM and the transfection agent to 25 ug/ml. For formulation of the siNAs equal volumes of the diluted siNA and delivery lipid were combined and incubated for 20 minutes at room temperature. Cells were meanwhile trypsinised and resuspended in antibiotic free BEBM media at 150,000 cells/ml. 20 ul of the formulated siNA and 80 ul of BEBM media was added per well of a 96 well plate (6 replicates/data point/siNA concentration) so as to give a nine point dose range of the siNAs (100 nM, 30 nM, 10 nM, 3 nM, 1 nM, 0.3 nM, 0.1 nM, 0.03 nM, 0.01 nM). The time of incubation with the transfection-siNA complexes were 48 hours with one change of media at 24 hours.
Total RNA was isolated from the cells in the 96-well plate format using the Automated SV96 Total RNA Isolation System (Promega) according to the manufacturer's instructions. The Biomek 2000 Laboratory Automation Workstation (Beckman Coulter) was used to apply the transfected cell lysates to a silica membrane. RNase-Free DNase I was then applied directly to the silica membrane to digest contaminating genomic DNA. The bound total RNA was further purified from contaminating salts, proteins and cellular impurities by simple washing steps. Finally, total RNA was eluted from the membrane by the addition of Nuclease-Free Water.
A series of probes and primers were used for the detection of mRNA transcripts of Bach1, OAS1, IL8 and GAPDH (as control/normalisation) in the human cell lines. The assays were performed on an ABI 7900HT instrument according to the manufacturer's instructions. Primer Probe sets used:
With Taqman data critical threshold values (Ct) were converted to copy numbers corresponding to the particular gene analysed in each well of the 384 well plate. Six identical wells were prepared in each plate for a given treatment. […] Determination of the percentage coefficient of variation (CV) (% C.V.=[standard deviation/average]*100) allowed the omitting of wells whose value was an outlier (so that % C.V.<25). Relative abundance (aka relative expression) of a gene was determined by dividing the mean copy number of that gene with its GAPDH counterpart in that particular sample.
EC50 values were calculated from the data using sigma plot. All calculations of the efficacy and potency of the siNAs were done relative to the non-targeting control siNA. Percentage knockdown was compared between the four lead siNA's. The data was analysed using an ANOVA test and then the p-values were corrected for multiple comparisons using the False Discovery Rate correction (FDR).

Substance | % KD [1] [%] | EC50 [2] [nM] | Maximum mRNA knockdown [2] [%]
29947-DC (sense GGAAUCCUGCUUUCAGUUUTT; antisense AAACUGAAAGCAGGAUUCCUU; inverted abasic caps (B), 2'-modified nucleotides, further chemistry not given here) | 46 ± 5.8 | 4.31 | 65
29956-DC (sense GUCUGAGUGUCCGUGGUUATT; antisense UAACCACGGACACUCAGACUU; inverted abasic caps (B), 2'-modified nucleotides, further chemistry not given here) | −14.5 ± 8.4 | 2.16 | 68
29957-DC (sense GCAGUUACUUCCACUCAAGTT; antisense CUUGAGUGGAAGUAACUGCUU; inverted abasic end caps, TT overhangs, modified nucleotides, further chemistry not given here) | 42.4 ± 1.2 | 0.95 | 70
29961-DC (sense CUACACUGCUAAACUGAUUTT; antisense AAUCAGUUUAGCAGUGUAGUU; inverted abasic end caps, TT overhangs, modified nucleotides, further chemistry not given here) | −23.5 ± 4.6 | 7.87 | 80
29964-DC (sense GAUUUGCAGGUGAUGUUAATT; antisense UUAACAUCACCUGCAAAUCUU; inverted abasic end caps, TT overhangs, modified nucleotides, further chemistry not given here) | 19.6 ± 3.9 | 9.52 | 72
29984-DC (sense GUUAAAGGAUUUGAACCUUTT; antisense AAGGUUCAAAUCCUUUAACUU; inverted abasic end caps, TT overhangs, modified nucleotides, further chemistry not given here) | 50.5 ± 0.8 | 23.2 | 65
29988-DC (sense AUUUGAACCUUUAAUUCAGTT; antisense CUGAAUUAAAGGUUCAAAUUU; inverted abasic end caps, TT overhangs, modified nucleotides, further chemistry not given here) | 71.3 ± 8.9 | 3.84 | 70
